# Results reported in PubChem BioAssay (NCI).
#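 GI50 is the concentration that inhibits growth by half. TGI denotes the concentration required for complete inhibition of growth.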
# Experiments:
# Assay in all cases: NCI anticancer screen, dose series, 384-well format
# 786-0 renal = tested on: 786-0 renal
# A498 renal = tested on: A498 renal
# A549 NSCLC = tested on: A549 NSCLC
# ACHN renal = tested on: ACHN renal
# BT-549 breast = tested on: BT-549 breast
# CAKI-1 renal = tested on: CAKI-1 renal
# CCRF-CEM leukemia = tested on: CCRF-CEM leukemia
# COLO 205 colon = tested on: COLO 205 colon
# DU-145 prostate = tested on: DU-145 prostate
# EKVX NSCLC = tested on: EKVX NSCLC
# HCC-2998 colon = tested on: HCC-2998 colon
# HCT-116 colon = tested on: HCT-116 colon
# HL-60(TB) leukemia = tested on: HL-60(TB) leukemia
# HOP-62 NSCLC = tested on: HOP-62 NSCLC
# HS 578T breast = tested on: HS 578T breast
# HT29 colon = tested on: HT29 colon
# KM12 colon = tested on: KM12 colon
# M14 melanoma = tested on: M14 melanoma
# MALME-3M melanoma = tested on: MALME-3M melanoma
# MCF7 breast = tested on: MCF7 breast
# MDA-MB-231 breast = tested on: MDA-MB-231 breast
# MDA-MB-468 breast = tested on: MDA-MB-468 breast
# MOLT-4 leukemia = tested on: MOLT-4 leukemia
# NCI-H226 lung = tested on: NCI-H226 lung
# NCI-H23 lung = tested on: NCI-H23 lung
# NCI-H322M lung = tested on: NCI-H322M lung
# NCI-H460 NSCLC = tested on: NCI-H460 NSCLC
# NCI/ADR-RES ovarian = tested on: NCI/ADR-RES ovarian
# OVCAR-3 ovarian = tested on: OVCAR-3 ovarian
# OVCAR-4 ovarian = tested on: OVCAR-4 ovarian
# OVCAR-5 ovarian = tested on: OVCAR-5 ovarian
# OVCAR-8 ovarian = tested on: OVCAR-8 ovarian
# PC-3 prostate = tested on: PC-3 prostate
# RPMI-8226 leukemia = tested on: RPMI-8226 leukemia
# RXF 393 renal = tested on: RXF 393 renal
# SF-295 CNS = tested on: SF-295 CNS
# SF-539 CNS = tested on: SF-539 CNS
# SK-MEL-28 melanoma = tested on: SK-MEL-28 melanoma
# SK-MEL-5 melanoma = tested on: SK-MEL-5 melanoma
# SK-OV-3 ovarian = tested on: SK-OV-3 ovarian
# SN12C renal = tested on: SN12C renal
# SNB-75 CNS = tested on: SNB-75 CNS
# SR leukemia = tested on: SR leukemia
# SW-620 colon = tested on: SW-620 colon
# T-47D breast = tested on: T-47D breast
# TK-10 renal = tested on: TK-10 renal
# U251 glioblastoma = tested on: U251 glioblastoma
smiles,measurement,setting,value
CC[C@H](Nc1ncnc2nc[nH]c12)c1nc2cccc(F)c2c(=O)n1-c1ccccc1,GI50,786-0 renal,10.6 µM
same,TGI,786-0 renal,> 100 µM
same,GI50,A498 renal,4.38 µM
same,TGI,A498 renal,23 µM
same,GI50,A549 NSCLC,32 µM
same,TGI,A549 NSCLC,> 100 µM
same,GI50,ACHN renal,13.2 µM
same,TGI,ACHN renal,> 100 µM
same,GI50,BT-549 breast,4.22 µM
same,TGI,BT-549 breast,48.1 µM
same,GI50,CAKI-1 renal,7.37 µM
same,TGI,CAKI-1 renal,> 67.4 µM
same,GI50,CCRF-CEM leukemia,5.93 µM
same,TGI,CCRF-CEM leukemia,25.8 µM
same,GI50,COLO 205 colon,> 67.3 µM
same,TGI,COLO 205 colon,> 100 µM
same,GI50,DU-145 prostate,45 µM
same,TGI,DU-145 prostate,> 100 µM
same,GI50,EKVX NSCLC,22.4 µM
same,TGI,EKVX NSCLC,> 84.8 µM
same,GI50,HCC-2998 colon,36.7 µM
same,TGI,HCC-2998 colon,> 93.5 µM
same,GI50,HCT-116 colon,39.9 µM
same,TGI,HCT-116 colon,> 100 µM
same,GI50,HL-60(TB) leukemia,4.61 µM
same,TGI,HL-60(TB) leukemia,17.9 µM
same,GI50,HOP-62 NSCLC,> 59.5 µM
same,TGI,HOP-62 NSCLC,> 100 µM
same,GI50,HS 578T breast,12.5 µM
same,TGI,HS 578T breast,50.3 µM
same,GI50,HT29 colon,58.2 µM
same,TGI,HT29 colon,> 100 µM
same,GI50,KM12 colon,24.2 µM
same,TGI,KM12 colon,> 100 µM
same,GI50,M14 melanoma,> 69 µM
same,TGI,M14 melanoma,> 100 µM
same,GI50,MALME-3M melanoma,20.8 µM
same,TGI,MALME-3M melanoma,> 89.1 µM
same,GI50,MCF7 breast,7.96 µM
same,TGI,MCF7 breast,69.5 µM
same,GI50,MDA-MB-231 breast,73.6 µM
same,TGI,MDA-MB-231 breast,> 100 µM
same,GI50,MDA-MB-468 breast,4.58 µM
same,TGI,MDA-MB-468 breast,15.9 µM
same,GI50,MOLT-4 leukemia,10 µM
same,TGI,MOLT-4 leukemia,22.1 µM
same,GI50,NCI-H226 lung,37 µM
same,TGI,NCI-H226 lung,> 100 µM
same,GI50,NCI-H23 lung,38.2 µM
same,TGI,NCI-H23 lung,> 100 µM
same,GI50,NCI-H322M lung,34.7 µM
same,TGI,NCI-H322M lung,> 100 µM
same,GI50,NCI-H460 NSCLC,38 µM
same,TGI,NCI-H460 NSCLC,> 100 µM
same,GI50,NCI/ADR-RES ovarian,54.7 µM
same,TGI,NCI/ADR-RES ovarian,> 100 µM
same,GI50,OVCAR-3 ovarian,8.68 µM
same,TGI,OVCAR-3 ovarian,> 73.4 µM
same,GI50,OVCAR-4 ovarian,64.6 µM
same,TGI,OVCAR-4 ovarian,> 100 µM
same,GI50,OVCAR-5 ovarian,> 57.4 µM
same,TGI,OVCAR-5 ovarian,> 100 µM
same,GI50,OVCAR-8 ovarian,50.3 µM
same,TGI,OVCAR-8 ovarian,> 100 µM
same,GI50,PC-3 prostate,6.18 µM
same,TGI,PC-3 prostate,> 100 µM
same,GI50,RPMI-8226 leukemia,16.7 µM
same,TGI,RPMI-8226 leukemia,36.5 µM
same,GI50,RXF 393 renal,1.4 µM
same,TGI,RXF 393 renal,9.61 µM
same,GI50,SF-295 CNS,23.1 µM
same,TGI,SF-295 CNS,> 76.3 µM
same,GI50,SF-539 CNS,33.2 µM
same,TGI,SF-539 CNS,> 100 µM
same,GI50,SK-MEL-28 melanoma,27.5 µM
same,TGI,SK-MEL-28 melanoma,> 100 µM
same,GI50,SK-MEL-5 melanoma,7.4 µM
same,TGI,SK-MEL-5 melanoma,> 45.7 µM
same,GI50,SK-OV-3 ovarian,30.6 µM
same,TGI,SK-OV-3 ovarian,> 83.3 µM
same,GI50,SN12C renal,16.6 µM
same,TGI,SN12C renal,> 100 µM
same,GI50,SNB-75 CNS,0.783 µM
same,TGI,SNB-75 CNS,6.15 µM
same,GI50,SR leukemia,16.2 µM
same,TGI,SR leukemia,32.6 µM
same,GI50,SW-620 colon,> 75.8 µM
same,TGI,SW-620 colon,> 100 µM
same,GI50,T-47D breast,5.22 µM
same,TGI,T-47D breast,56.4 µM
same,GI50,TK-10 renal,> 38.3 µM
same,TGI,TK-10 renal,> 94.5 µM
same,GI50,U251 glioblastoma,> 71.4 µM
same,TGI,U251 glioblastoma,> 100 µM
CC(C)Nc1cc(-c2c[nH]c(C(=O)N[C@H](CO)c3cccc(Cl)c3)c2)c(Cl)cn1,GI50,786-0 renal,3.58 µM
same,TGI,786-0 renal,17.1 µM
same,GI50,A498 renal,1.76 µM
same,TGI,A498 renal,12.7 µM
same,GI50,A549 NSCLC,0.641 µM
same,TGI,A549 NSCLC,13.4 µM
same,GI50,ACHN renal,2.95 µM
same,TGI,ACHN renal,16.3 µM
same,GI50,BT-549 breast,3.37 µM
same,TGI,BT-549 breast,15.4 µM
same,GI50,CAKI-1 renal,1.04 µM
same,TGI,CAKI-1 renal,16.5 µM
same,GI50,CCRF-CEM leukemia,2.89 µM
same,TGI,CCRF-CEM leukemia,12.5 µM
same,GI50,COLO 205 colon,0.134 µM
same,TGI,COLO 205 colon,1.07 µM
same,GI50,DU-145 prostate,9.92 µM
same,TGI,DU-145 prostate,24.3 µM
same,GI50,EKVX NSCLC,3.46 µM
same,TGI,EKVX NSCLC,17.3 µM
same,GI50,HCC-2998 colon,0.0896 µM
same,TGI,HCC-2998 colon,0.309 µM
same,GI50,HCT-116 colon,0.231 µM
same,TGI,HCT-116 colon,3.11 µM
same,GI50,HL-60(TB) leukemia,0.184 µM
same,TGI,HL-60(TB) leukemia,1.17 µM
same,GI50,HOP-62 NSCLC,3.19 µM
same,TGI,HOP-62 NSCLC,19.4 µM
same,GI50,HS 578T breast,10.5 µM
same,TGI,HS 578T breast,22.3 µM
same,GI50,HT29 colon,0.289 µM
same,TGI,HT29 colon,13.2 µM
same,GI50,KM12 colon,0.547 µM
same,TGI,KM12 colon,12.8 µM
same,GI50,M14 melanoma,0.0842 µM
same,TGI,M14 melanoma,0.328 µM
same,GI50,MALME-3M melanoma,0.0197 µM
same,TGI,MALME-3M melanoma,0.076 µM
same,GI50,MCF7 breast,3.72 µM
same,TGI,MCF7 breast,15.9 µM
same,GI50,MDA-MB-231 breast,1.37 µM
same,TGI,MDA-MB-231 breast,17.1 µM
same,GI50,MDA-MB-468 breast,6.13 µM
same,TGI,MDA-MB-468 breast,16.1 µM
same,GI50,MOLT-4 leukemia,1.66 µM
same,TGI,MOLT-4 leukemia,6.58 µM
same,GI50,NCI-H226 lung,1.34 µM
same,TGI,NCI-H226 lung,16.6 µM
same,GI50,NCI-H23 lung,0.132 µM
same,TGI,NCI-H23 lung,4.12 µM
same,GI50,NCI-H322M lung,2.88 µM
same,TGI,NCI-H322M lung,19.4 µM
same,GI50,NCI-H460 NSCLC,0.758 µM
same,TGI,NCI-H460 NSCLC,13.6 µM
same,GI50,NCI/ADR-RES ovarian,9.98 µM
same,TGI,NCI/ADR-RES ovarian,22.2 µM
same,GI50,OVCAR-3 ovarian,4.95 µM
same,TGI,OVCAR-3 ovarian,19.6 µM
same,GI50,OVCAR-4 ovarian,11.6 µM
same,TGI,OVCAR-4 ovarian,24 µM
same,GI50,OVCAR-5 ovarian,0.567 µM
same,TGI,OVCAR-5 ovarian,16.2 µM
same,GI50,OVCAR-8 ovarian,5.72 µM
same,TGI,OVCAR-8 ovarian,19.5 µM
same,GI50,PC-3 prostate,7.81 µM
same,TGI,PC-3 prostate,21.3 µM
same,GI50,RPMI-8226 leukemia,0.366 µM
same,TGI,RPMI-8226 leukemia,1.88 µM
same,GI50,RXF 393 renal,4.14 µM
same,TGI,RXF 393 renal,16.5 µM
same,GI50,SF-295 CNS,7.68 µM
same,TGI,SF-295 CNS,20.2 µM
same,GI50,SF-539 CNS,4.36 µM
same,TGI,SF-539 CNS,16.2 µM
same,GI50,SK-MEL-28 melanoma,0.12 µM
same,TGI,SK-MEL-28 melanoma,0.509 µM
same,GI50,SK-MEL-5 melanoma,0.265 µM
same,TGI,SK-MEL-5 melanoma,2.04 µM
same,GI50,SK-OV-3 ovarian,6.86 µM
same,TGI,SK-OV-3 ovarian,19.6 µM
same,GI50,SN12C renal,6.15 µM
same,TGI,SN12C renal,21.4 µM
same,GI50,SNB-75 CNS,13.4 µM
same,TGI,SNB-75 CNS,26.2 µM
same,GI50,SR leukemia,1.01 µM
same,TGI,SR leukemia,2.21 µM
same,GI50,SW-620 colon,0.13 µM
same,TGI,SW-620 colon,1.82 µM
same,GI50,T-47D breast,9.03 µM
same,TGI,T-47D breast,21.9 µM
same,GI50,TK-10 renal,2.6 µM
same,TGI,TK-10 renal,17.3 µM
same,GI50,U251 glioblastoma,2 µM
same,TGI,U251 glioblastoma,15.8 µM
